Measured values as given in the supplement of paper PMC10307832.

Key:
Assay in all cases: relative viability (nuclei count vs DMSO), 5 days (fraction); higher = more cells survive
[1] = compound: C1CC(C2=C(C1)C3=C(N2)C=CC(=C3)Cl)C(=O)N [Selisistat] + C[C@@H](Oc1cc(-c2cnn(C3CCNCC3)c2)cnc1N)c1c(Cl)ccc(F)c1Cl [Crizotinib] (partner 1 µM)
How it was run: (§1)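 After 5 days of treatment, lung cancer cells in 1536-well plates were fixed and stained in a single step (final 0.05% Triton X-100, 1% formaldehyde, 1 ug/ml Hoechst) and their nuclei counted on 4× images. Treatment had been applied by pin tool the day after seeding as one drug alone or as a fixed anchor-drug dose with five library-drug doses (not always all listed) in √10 steps. Relative viability is the nuclei count of treated wells divided by that of vehicle wells, and values are medians of duplicate plates.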

[2] = compound: c1ccc2c(CCNc3ccc(Nc4ccncc4)cc3)c[nH]c2c1 [Serdemetan] + CS(=O)(=O)N1CCN(Cc2cc3nc(-c4cccc5[nH]ncc45)nc(N4CCOCC4)c3s2)CC1 [Pictilisib] (partner 1 µM)
How it was run: as §1

[3] = compound: C1CC(C2=C(C1)C3=C(N2)C=CC(=C3)Cl)C(=O)N [Selisistat] + COc1cc2c(Oc3ccc(NC(=O)C4(C(=O)Nc5ccc(F)cc5)CC4)cc3F)ccnc2cc1OCCCN1CCOCC1 [Foretinib] (partner 0.25 µM)
How it was run: as §1

[4] = compound: C1CC(C2=C(C1)C3=C(N2)C=CC(=C3)Cl)C(=O)N [Selisistat] + C[C@]1(O)C[C@@H](c2nc(-c3ccc4ccc(-c5ccccc5)nc4c3)c3c(N)nccn32)C1 [Linsitinib] (partner 1 µM)
How it was run: as §1

Row | Cell Line | relative viability ([1]; first compound 0.4 µM) | relative viability ([1]; first compound 1.265 µM) | relative viability ([1]; first compound 12.65 µM) | relative viability ([1]; first compound 40 µM) | relative viability ([2]; first compound 0.04 µM) | relative viability ([2]; first compound 0.1265 µM) | relative viability ([2]; first compound 0.4 µM) | relative viability ([2]; first compound 1.265 µM) | relative viability ([2]; first compound 4 µM) | relative viability ([3]; first compound 0.4 µM) | relative viability ([3]; first compound 1.265 µM) | relative viability ([3]; first compound 12.65 µM) | relative viability ([3]; first compound 40 µM) | relative viability ([4]; first compound 0.4 µM) | relative viability ([4]; first compound 1.265 µM) | relative viability ([4]; first compound 12.65 µM) | relative viability ([4]; first compound 40 µM) | relative viability ([1]; first compound 4 µM) | relative viability ([3]; first compound 4 µM) | relative viability ([4]; first compound 4 µM)
1 | HCC-15 | 0.913 | 0.866 | 0.782 | 0.813 | 0.753 | 0.821 | 0.708 | 0.567 | 0.638 | 1.21 | 0.996 | 1.05 | 1.21 | 1.03 | 0.918 | 0.902 | 0.696 |  |  | 
2 | A-427 | 0.874 | 0.819 | 0.917 | 0.921 | 0.787 | 0.704 | 0.607 | 0.49 | 0.599 | 1.02 | 0.976 | 1.12 | 0.984 | 1.21 | 1.05 | 1.15 | 1.15 | 0.841 | 1.02 | 1.1
3 | NCI-H2228 | 0.529 | 0.49 | 0.442 | 0.379 | 0.322 | 0.26 | 0.327 | 0.257 | 0.214 | 0.979 | 0.931 | 0.843 | 0.916 | 0.857 | 0.566 | 0.656 | 0.598 | 0.362 | 0.685 | 0.562
4 | NCI-H1734 | 0.696 | 0.606 | 0.761 | 0.648 | 0.466 |  | 0.354 | 0.163 | 0.242 | 0.956 | 0.822 | 0.889 | 0.815 | 0.956 | 0.913 | 0.846 | 0.828 | 0.714 | 0.868 | 0.913
5 | PC-14 | 0.834 | 0.877 | 0.919 | 0.936 | 0.626 | 0.631 | 0.596 | 0.634 | 0.367 | 0.946 | 0.982 | 0.908 | 0.946 | 0.951 | 1.05 | 0.946 | 0.951 | 0.991 | 0.826 | 0.963
6 | NCI-H1915 | 0.917 | 0.87 | 0.885 | 0.908 | 0.966 | 1.01 | 0.921 | 0.811 | 0.985 | 1.11 | 1.05 | 1.06 | 1.18 | 1.15 | 1.09 | 1.08 | 1.13 | 0.883 | 1.14 | 1.14
7 | NCI-H1666 | 1.12 | 0.871 | 0.835 | 0.618 | 0.412 | 0.413 | 0.525 | 0.531 | 0.465 | 0.993 | 0.993 | 0.943 | 0.858 | 1.18 | 0.743 | 0.823 | 0.605 | 0.788 | 0.927 | 0.902
8 | HCC-366 | 0.58 | 0.681 | 0.521 | 0.562 | 0.204 | 0.151 | 0.0985 | 0.141 | 0.168 | 0.837 | 0.892 | 0.862 | 0.957 | 0.808 | 0.582 | 0.577 | 0.618 | 0.4 | 0.755 | 0.336
9 | SK-MES-1 | 1.12 | 0.993 | 0.875 | 0.959 | 0.333 | 0.378 | 0.377 | 0.363 | 0.205 | 0.908 | 0.762 | 0.879 | 0.883 | 1.11 | 1.04 | 1.05 | 1.01 | 1.05 | 0.624 | 0.955
10 | SW 1573 | 0.841 | 0.791 | 0.922 | 0.751 | 0.533 | 0.545 | 0.494 | 0.182 | 0.177 | 0.954 | 0.806 | 0.931 | 0.929 | 0.859 | 0.823 | 0.904 | 0.84 | 0.8 | 0.821 | 0.747
11 | NCI-H661 | 0.967 | 0.952 | 1.04 | 0.996 | 0.589 | 0.356 | 0.383 | 0.342 | 0.361 | 1.06 | 1.04 | 0.936 | 0.876 | 0.596 | 0.609 | 0.488 | 0.588 | 1.17 | 0.977 | 0.52
12 | PC-3 [JPC-3] | 1.02 | 1.01 | 1.01 | 1.07 | 0.748 | 0.693 |  | 0.705 | 0.735 | 1.07 | 1.04 | 1.07 | 1.06 | 1.01 | 0.968 | 1 | 0.987 | 0.936 | 1.01 | 0.954
13 | NCI-H1623 |  |  |  |  |  |  |  |  |  | 0.963 | 0.782 | 0.918 | 0.846 |  |  |  |  |  | 0.614 | 
14 | Calu-6 | 0.778 | 0.602 | 0.682 | 0.633 | 0.912 | 0.888 | 0.888 | 0.647 | 0.621 | 0.932 | 0.812 | 0.853 | 0.84 | 0.932 | 0.964 | 0.975 | 0.939 | 0.764 | 0.814 | 0.981
15 | LC-2-ad | 0.468 |  | 0.433 | 0.433 | 0.42 | 0.445 | 0.431 |  | 0.417 | 1.14 |  | 0.918 | 0.889 | 0.88 | 0.846 | 0.808 | 0.856 | 0.42 | 0.706 | 0.867
16 | CAL-12T | 0.668 | 0.518 | 0.626 | 0.422 |  | 0.521 |  | 0.369 | 0.368 | 1.12 | 1 | 1.03 | 1.03 | 0.85 | 0.799 | 0.784 | 0.862 | 0.795 | 1 | 0.82
17 | RERF-LC-KJ | 0.826 | 0.879 | 0.771 | 0.716 | 0.433 | 0.561 | 0.569 | 0.475 | 0.388 | 0.902 | 0.783 | 0.829 | 0.803 | 0.969 | 0.878 | 0.88 | 0.775 | 0.835 | 0.84 | 0.937
